Source: US9393314B2, “Meloxicam eye drops and preparation method and use thereof” (KANGYA OF NINGXIA PHARMACEUTICALS CO., LTD., priority 2013, dated 2016)
Marks after values point to notes of the source that are not given here.

Tested on: rabbit eyes (aqueous humor protein concentration)
Assay: Rabbit eye anterior chamber puncture test
Type: in vivo
Protocol: Thirty-six rabbits without ocular abnormalities were taken and randomly divided into six groups, with six rabbits in each group. The groups are respectively saline group, medium control group, positive control group of diclofenac sodium, 0.025%, 0.05% and 0.1% meloxicam eye drops groups. Then 0.05 mL drug solution was dropped into the rabbit eyes for experiment. The eyes were forced to be closed for 10 seconds; 45 minutes later, under local anesthesia with 0.2 mL of 1% tetracaine drops, puncturing was performed with 41/2 needle from the edge of the limbus to take 0.2 mL of primary aqueous humor; 90 minutes later, puncturing was performed again to take the secondary aqueous humor. Those two batches of aqueous humor were diluted 2-fold and 50-fold respectively. Then 0.05 mL of distilled water, aqueous humor dilution and protein standard solution were taken, 3 mL Coomassie brilliant blue staining solution was added thereto respectively, after 10 minutes of reaction, their absorbance values at 595 nm were measured, and the protein content was calculated according to the following formula: [formula]

SMILES: O=C(O)Cc1ccccc1Nc1c(Cl)cccc1Cl [Diclofenac sodium]
- Protein concentration in aqueous humor, Primary (0.05 ml/eye, puncture 45 minutes after dosing, x ± s, n 6): 0.52 ± 0.19 mg/mL
- Protein concentration in aqueous humor, Secondary (0.05 ml/eye, second puncture 90 minutes later, x ± s, n 6): 18.05 ± 3.01**^ΔΔ mg/ml
- inhibition of the increase in aqueous humor protein concentration caused by puncture of anterior chamber (vs saline and medium control groups): significantly inhibit
